Assays:
Type in all cases: physicochemical
[1] = Bulk density and tapped bulk density, Test Method 616 of United States Pharmacopeia 24; settings: for tapped bulk density: after tapping
[2] = Particle size distribution by MASTERSIZER 2000 laser light scattering
Excerpt: The particle size distribution plots of the drawings were obtained using a MASTERSIZER™ 2000 laser light scattering instrument sold by Malvern Instruments Ltd. of Malvern, Worcestershire, United Kingdom. In the plots, values in the vertical axis represent a volume percentage of particles and the horizontal axis is a logarithmic scale of particle sizes, in μm units.

[3] = Storage of polymorphic forms under ambient conditions, form checked by XRPD; settings: for polymorphic form after storage (XRPD pattern): ambient conditions; for polymorphic form stability upon storage: storage at ambient temperatures
Excerpt: The various forms of tadalafil are characterized by their XRPD patterns, which differ between polymorpic forms. All XRPD results reported herein were obtained using Cu Kα radiation, having the wavelength 1.541 Å. The XRPD patterns of the figures have a vertical axis that is intensity units, and a horizontal axis that is degrees 2θ.

| Structure (SMILES) | bulk density [1] [g/mL] | tapped bulk density [1] [g/mL] | diameters of 10 volume percent of the particles [2] | diameters of 50 volume percent of the particles [2] | diameters of 90 volume percent of the particles [2] | polymorphic form after storage (XRPD pattern) ([3]; sealed polyethylene bag, 3 to 4 days) | polymorphic form stability upon storage ([3]; listed as mixtures of Form A and Form B) | polymorphic form after storage (XRPD pattern) ([3]; sealed in a polyethylene bag, 40 hours) | polymorphic form stability upon storage [3] |
| --- | --- | --- | --- | --- | --- | --- | --- | --- | --- |
| CN1CC(=O)N2[C@H](c3ccc4c(c3)OCO4)c3[nH]c4ccccc4c3C[C@@H]2C1=O [Example 11, tadalafil] | 0.181 | 0.434 | less than 9.9 μm | less than 40 μm | less than 148 μm |  |  |  |  |
| CN1CC(=O)N2[C@H](c3ccc4c(c3)OCO4)c3[nH]c4ccccc4c3C[C@@H]2C1=O [Example 15, tadalafil] | 0.435 | 0.626 | less than 58 μm | less than 193 μm | less than 428 μm |  |  |  |  |
| CN1CC(=O)N2[C@H](c3ccc4c(c3)OCO4)c3[nH]c4ccccc4c3C[C@@H]2C1=O [Example 21, tadalafil] |  |  |  |  |  | conversion of the tadalafil Form B into Form A | will convert to only Form A |  |  |
| CN1CC(=O)N2[C@H](c3ccc4c(c3)OCO4)c3[nH]c4ccccc4c3C[C@@H]2C1=O [Example 1, tadalafil] | 0.344 | 0.666 | less than 31 μm | less than 104 μm | less than 321 μm |  |  |  |  |
| CN1CC(=O)N2[C@H](c3ccc4c(c3)OCO4)c3[nH]c4ccccc4c3C[C@@H]2C1=O [Tadalafil Form B, tadalafil] |  |  |  |  |  |  |  | conversion of the tadalafil Form B into Form A | spontaneously converts to Form A |
